Assay [1] addresses T1, EGFR (L858R T790M C797S) (Homo sapiens, UniProt P00533, C797S/L858R/T790M).
T1 construct: purchased SignalChem E10-122VG
Description: Biochemical EGFR inhibition assay (Caliper mobility shift), EGFR LRTMCS. The note with it: LRTMCS (PH) IC50 (nM) @ 1 mM ATP (Num), EGFR LRTMCS mutant. In a few lines:
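Each enzyme was allowed to phosphorylate 10–20% of its peptide at 25° C. before EDTA (35 mM) quench. Separated substrate and product peaks were measured by mobility shift, giving apparent IC50 values.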

Assay [2] concerns the target T2, intracellular phosphorylation of EGFR in NCI-H1975 cell line that harbors the EGFR L858R T790M mutations (Homo sapiens, UniProt P00533, L858R/T790M).
T2 construct: NCI-H1975 cell line that harbors the EGFR L858R T790M mutations (ATCC, CRL-5908); host or cells: NCI-H1975
Description: NCI-H1975 pEGFR AlphaLISA assay. The format is cell-based. The note with it: NCI-H1975 cells (EGFR L858R T790M), p-EGFR (Tyr1068), 4-5 hours incubation. The method, then:
On the next day, the test compounds and DMSO control were added into H1975 cell plate followed by incubation at 37C/5% CO2 for 4-5 hours. […] Then 5 μL of a donor bead mix was added to each well followed by overnight incubation at room temperature in dark. On the next day, the plate was read at a compatible plate reader to obtain pEGFR signal. Percent of pEGFR inhibition was plotted against log concentration of compounds to generate IC50 values.

[3] abbreviates: read-out: Ext pEGFR H1975 GMean IC50 (nM) Protocol: @Pharmaron AlphaLISA (Num).

Results on 20 compounds are retold here after patent US20240382483A1, “HETEROCYCLIC EGFR INHIBITORS FOR USE IN THE TREATMENT OF CANCER” (Blueprint Medicines Corporation, priority 2021, published 2024).

What is called IC50 is the concentration that gives 50% inhibition.

Like-named read-outs stand apart in the source and are kept apart here. Some results are limits rather than exact numbers.

T2 sequence (P00533 25-1210 T790M/L858R): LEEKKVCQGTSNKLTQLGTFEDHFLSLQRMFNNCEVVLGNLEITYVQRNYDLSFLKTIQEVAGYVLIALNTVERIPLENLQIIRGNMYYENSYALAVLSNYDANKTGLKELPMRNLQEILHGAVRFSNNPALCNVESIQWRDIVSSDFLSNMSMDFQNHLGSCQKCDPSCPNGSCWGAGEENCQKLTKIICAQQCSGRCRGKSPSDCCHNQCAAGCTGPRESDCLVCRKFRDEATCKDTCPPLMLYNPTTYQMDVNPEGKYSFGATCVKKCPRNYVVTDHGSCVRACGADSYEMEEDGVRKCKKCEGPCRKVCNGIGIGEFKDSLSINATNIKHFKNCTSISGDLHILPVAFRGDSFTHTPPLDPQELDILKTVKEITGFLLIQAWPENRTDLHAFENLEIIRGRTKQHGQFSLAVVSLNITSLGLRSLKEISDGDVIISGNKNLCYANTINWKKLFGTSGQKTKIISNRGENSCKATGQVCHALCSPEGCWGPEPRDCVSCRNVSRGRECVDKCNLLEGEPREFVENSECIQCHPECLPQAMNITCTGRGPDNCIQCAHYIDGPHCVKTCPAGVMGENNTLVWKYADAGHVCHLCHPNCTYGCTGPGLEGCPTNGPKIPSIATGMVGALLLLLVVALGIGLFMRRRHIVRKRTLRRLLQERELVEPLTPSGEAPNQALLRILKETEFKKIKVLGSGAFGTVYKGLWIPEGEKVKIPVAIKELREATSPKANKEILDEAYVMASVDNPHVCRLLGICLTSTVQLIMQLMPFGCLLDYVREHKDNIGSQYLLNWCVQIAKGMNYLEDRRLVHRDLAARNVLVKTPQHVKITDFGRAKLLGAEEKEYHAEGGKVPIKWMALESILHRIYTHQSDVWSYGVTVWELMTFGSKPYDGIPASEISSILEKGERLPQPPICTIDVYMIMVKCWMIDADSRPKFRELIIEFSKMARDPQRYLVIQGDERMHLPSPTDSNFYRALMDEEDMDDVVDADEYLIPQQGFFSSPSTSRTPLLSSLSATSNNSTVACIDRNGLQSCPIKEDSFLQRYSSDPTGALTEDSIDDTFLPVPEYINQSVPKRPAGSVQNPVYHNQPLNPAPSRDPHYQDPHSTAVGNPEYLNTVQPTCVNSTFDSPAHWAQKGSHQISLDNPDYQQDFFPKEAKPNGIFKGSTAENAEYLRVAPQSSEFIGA
T1 sequence (P00533 25-1210 T790M/C797S/L858R): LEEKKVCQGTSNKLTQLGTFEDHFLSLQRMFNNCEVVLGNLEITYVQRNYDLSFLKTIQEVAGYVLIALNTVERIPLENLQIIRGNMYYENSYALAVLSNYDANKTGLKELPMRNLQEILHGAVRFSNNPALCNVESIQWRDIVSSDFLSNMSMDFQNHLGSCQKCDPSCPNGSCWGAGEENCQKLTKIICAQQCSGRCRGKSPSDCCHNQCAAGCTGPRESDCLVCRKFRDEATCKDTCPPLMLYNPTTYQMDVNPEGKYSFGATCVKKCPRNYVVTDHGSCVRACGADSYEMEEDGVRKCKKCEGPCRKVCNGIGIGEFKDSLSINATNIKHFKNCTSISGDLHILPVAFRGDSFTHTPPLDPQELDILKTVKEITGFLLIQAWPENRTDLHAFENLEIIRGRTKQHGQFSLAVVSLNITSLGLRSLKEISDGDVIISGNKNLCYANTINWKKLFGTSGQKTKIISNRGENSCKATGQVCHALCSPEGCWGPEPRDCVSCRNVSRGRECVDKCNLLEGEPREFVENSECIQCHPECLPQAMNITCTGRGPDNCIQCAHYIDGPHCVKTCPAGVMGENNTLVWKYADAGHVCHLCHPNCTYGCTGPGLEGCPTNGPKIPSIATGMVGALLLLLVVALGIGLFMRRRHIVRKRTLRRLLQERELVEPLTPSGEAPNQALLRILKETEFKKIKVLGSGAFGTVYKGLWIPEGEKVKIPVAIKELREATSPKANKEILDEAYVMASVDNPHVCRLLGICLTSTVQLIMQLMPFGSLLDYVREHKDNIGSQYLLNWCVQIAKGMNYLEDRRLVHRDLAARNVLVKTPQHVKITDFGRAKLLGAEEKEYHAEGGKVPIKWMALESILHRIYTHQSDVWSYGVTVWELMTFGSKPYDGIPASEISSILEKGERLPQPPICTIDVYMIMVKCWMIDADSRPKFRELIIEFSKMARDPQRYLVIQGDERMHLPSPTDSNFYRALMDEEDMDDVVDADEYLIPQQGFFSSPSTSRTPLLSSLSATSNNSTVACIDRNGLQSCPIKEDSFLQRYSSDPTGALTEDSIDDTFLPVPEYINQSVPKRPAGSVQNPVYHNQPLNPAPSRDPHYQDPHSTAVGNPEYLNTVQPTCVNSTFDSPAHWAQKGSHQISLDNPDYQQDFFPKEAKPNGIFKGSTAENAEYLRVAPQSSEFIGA

For the compound `COC(=O)NCC1CN(c2ncc(C(C)C)c3cc(Nc4ccnc(N5CC[C@@H](O)[C@@](C)(F)C5)n4)ncc23)C1` [Example 84, methyl ((1-(6-((2-((3S,4R)-3-fluoro-4-hydroxy-3-methylpiperidin-1-yl)pyrimidin-4-yl)amino)-4-isopropyl-2,7-naphthyridin-1-yl)azetidin-3-yl)methyl)carbamate], the values for the IC50 in assay [1] and in assay [2] (setting [3]) were less than 15 nM and 20 to 30 nM, respectively.
For `CNC(=O)C1(F)CN(c2ncc(C(C)C)c3cc(Nc4ccnc(N5CC[C@@H](O)[C@@](C)(F)C5)n4)ncc23)C1` [Example 85, 3-fluoro-1-(6-((2-((3S,4R)-3-fluoro-4-hydroxy-3-methylpiperidin-1-yl)pyrimidin-4-yl)amino)-4-isopropyl-2,7-naphthyridin-1-yl)-N-methylazetidine-3-carboxamide], in that order: 20 to 30 nM and 30 to 50 nM.
The matching figures for `CC(C)c1cnc(N2CC(CC(=O)N(C)C)C2)c2cnc(Nc3ccnc(N4CC[C@@H](O)[C@@](C)(F)C4)n3)cc12` [Example 86, 2-(1-(6-((2-((3S,4R)-3-fluoro-4-hydroxy-3-methylpiperidin-1-yl)pyrimidin-4-yl)amino)-4-isopropyl-2,7-naphthyridin-1-yl)azetidin-3-yl)-N,N-dimethylacetamide]: 20 to 30 nM and 30 to 50 nM.
For `CNC(=O)CC1CN(c2ncc(C(C)C)c3cc(Nc4ccnc(N5CC[C@@H](O)[C@@](C)(F)C5)n4)ncc23)C1` [Example 87, 2-(1-(6-((2-((3S,4R)-3-fluoro-4-hydroxy-3-methylpiperidin-1-yl)pyrimidin-4-yl)amino)-4-isopropyl-2,7-naphthyridin-1-yl)azetidin-3-yl)-N-methylacetamide], in that order: less than 15 nM and 20 to 30 nM.
For `CC(C)c1cnc(N2CC(n3cncn3)C2)c2cnc(Nc3ccnc(N4CC[C@@H](O)[C@@](C)(F)C4)n3)cc12` [Example 88, (3S,4R)-1-(4-((8-(3-(1H-1,2,4-triazol-1-yl)azetidin-1-yl)-5-isopropyl-2,7-naphthyridin-3-yl)amino)pyrimidin-2-yl)-3-fluoro-3-methylpiperidin-4-ol], the results for the IC50 in assay [1] and in assay [2] (setting [3]) were less than 15 nM and 30 to 50 nM, respectively.
As to `CC(C)c1cnc(N2CC(n3ccnn3)C2)c2cnc(Nc3ccnc(N4CC[C@@H](O)[C@@](C)(F)C4)n3)cc12` [Example 89, (3S,4R)-1-(4-((8-(3-(1H-1,2,3-triazol-1-yl)azetidin-1-yl)-5-isopropyl-2,7-naphthyridin-3-yl)amino)pyrimidin-2-yl)-3-fluoro-3-methylpiperidin-4-ol], the IC50 in assay [1] is less than 15 nM; in assay [2] (setting [3]), less than 10 nM.
Consider `CC(C)c1cnc(N2Cc3cnn(C)c3C2)c2cnc(Nc3ccnc(N4CC[C@@H](O)[C@@](C)(F)C4)n3)cc12` [Example 90, (3S,4R)-3-fluoro-1-(4-((5-isopropyl-8-(1-methyl-4,6-dihydropyrrolo[3,4-c]pyrazol-5(1H)-yl)-2,7-naphthyridin-3-yl)amino)pyrimidin-2-yl)-3-methylpiperidin-4-ol], for which the results for the IC50 in assay [1] and in assay [2] (setting [3]) were less than 15 nM and 30 to 50 nM, respectively.
Turning to `CC(C)c1cnc(N2CC(N3CCCC3=O)C2)c2cnc(Nc3ccnc(N4CC[C@@H](O)[C@@](C)(F)C4)n3)cc12` [Example 91, 1-(1-(6-((2-((3S,4R)-3-fluoro-4-hydroxy-3-methylpiperidin-1-yl)pyrimidin-4-yl)amino)-4-isopropyl-2,7-naphthyridin-1-yl)azetidin-3-yl)pyrrolidin-2-one], the half-maximal inhibitory concentration (IC50) in assay [1] is 15 to 20 nM; in assay [2] (setting [3]) it was more than 50 nM.
The matching figures for `CC(C)c1cnc(N2CC(F)(C(=O)N(C)C)C2)c2cnc(Nc3ccnc(N4CC[C@@H](O)[C@@](C)(F)C4)n3)cc12` [Example 92, 3-fluoro-1-(6-((2-((3S,4R)-3-fluoro-4-hydroxy-3-methylpiperidin-1-yl)pyrimidin-4-yl)amino)-4-isopropyl-2,7-naphthyridin-1-yl)-N,N-dimethylazetidine-3-carboxamide]: 15 to 20 nM and 30 to 50 nM.
On to `CC(C)c1cnc(N2CC(C)(C(=O)N(C)C)C2)c2cnc(Nc3ccnc(N4CC[C@@H](O)[C@@](C)(F)C4)n3)cc12` [Example 93, 1-(6-((2-((3S,4R)-3-fluoro-4-hydroxy-3-methylpiperidin-1-yl)pyrimidin-4-yl)amino)-4-isopropyl-2,7-naphthyridin-1-yl)-N,N,3-trimethylazetidine-3-carboxamide], for which the IC50 in assay [1] is less than 15 nM; in assay [2] (setting [3]), 10 to 20 nM.
The matching figures for `CC(C)c1cnc(N2CC(N=S(C)(C)=O)C2)c2cnc(Nc3ccnc(N4CC[C@@H](O)[C@@](C)(F)C4)n3)cc12` [Example 94, ((1-(6-((2-((3S,4R)-3-fluoro-4-hydroxy-3-methylpiperidin-1-yl)pyrimidin-4-yl)amino)-4-isopropyl-2,7-naphthyridin-1-yl)azetidin-3-yl)imino)dimethyl-l6-sulfanone]: less than 15 nM and 20 to 30 nM.
`COP(=O)(CC1CN(c2ncc(C(C)C)c3cc(Nc4ccnc(N5CC[C@@H](O)[C@@](C)(F)C5)n4)ncc23)C1)OC` [Example 96, dimethyl ((1-(6-((2-((3S,4R)-3-fluoro-4-hydroxy-3-methylpiperidin-1-yl)pyrimidin-4-yl)amino)-4-isopropyl-2,7-naphthyridin-1-yl)azetidin-3-yl)methyl)phosphonate]: the concentration for half-maximal inhibition (IC50) in assay [1] and in assay [2] (Ext pEGFR H1975 GMean IC50 (nM) Protocol: @Pharmaron AlphaLISA (Num)) was 20 to 30 nM each time.
Regarding `CC(C)c1cnc(N2CC3(CCS3(=O)=O)C2)c2cnc(Nc3ccnc(N4CC[C@@H](O)[C@@](C)(F)C4)n3)cc12` [Example 98, 6-(6-((2-((3S,4R)-3-fluoro-4-hydroxy-3-methylpiperidin-1-yl)pyrimidin-4-yl)amino)-4-isopropyl-2,7-naphthyridin-1-yl)-1-thia-6-azaspiro[3.3]heptane 1,1-dioxide], the concentration for half-maximal inhibition (IC50) in assay [1] was less than 15 nM; in assay [2] (setting [3]) it was 10 to 20 nM.
Take `CC(C)c1cnc(N2CC3(CCN(C)C3=O)C2)c2cnc(Nc3ccnc(N4CC[C@@H](O)[C@@](C)(F)C4)n3)cc12` [Example 99, 2-(6-((2-((3S,4R)-3-fluoro-4-hydroxy-3-methylpiperidin-1-yl)pyrimidin-4-yl)amino)-4-isopropyl-2,7-naphthyridin-1-yl)-6-methyl-2,6-diazaspiro[3.4]octan-5-one]: the IC50 in assay [1] lay in the range of 30 to 100 nM; in assay [2] (setting [3]), 30 to 50 nM.
The matching figures for `CC(C)c1cnc(N2CC(C[S+]([O-])C(F)(F)F)C2)c2cnc(Nc3ccnc(N4CC[C@@H](O)[C@@](C)(F)C4)n3)cc12` (stereo partly drawn) [Example 100, (3S,4R)-3-fluoro-1-(4-((5-isopropyl-8-(3-(((trifluoromethyl)sulfinyl)methyl)azetidin-1-yl)-2,7-naphthyridin-3-yl)amino)pyrimidin-2-yl)-3-methylpiperidin-4-ol]: less than 15 nM and 10 to 20 nM.
The matching figures for `CC(C)c1cnc(N2CC(C3COC3)C2)c2cnc(Nc3ccnc(N4CC[C@@H](O)[C@@](C)(F)C4)n3)cc12` [Example 101, (3S,4R)-3-fluoro-1-(4-((5-isopropyl-8-(3-(oxetan-3-yl)azetidin-1-yl)-2,7-naphthyridin-3-yl)amino)pyrimidin-2-yl)-3-methylpiperidin-4-ol]: less than 15 nM and 30 to 50 nM.
For `C[C@@H]1[C@@H](O)CN1c1ncc(C2CC2)c2cc(Nc3ccnc(N4CC[C@@H](O)[C@@](C)(F)C4)n3)ncc12` [Example 102, (3S,4R)-1-(4-((5-cyclopropyl-8-((2R,3S)-3-hydroxy-2-methylazetidin-1-yl)-2,7-naphthyridin-3-yl)amino)pyrimidin-2-yl)-3-fluoro-3-methylpiperidin-4-ol], in that order: 20 to 30 nM and more than 50 nM.
In the case of `CC(C)c1ccc(N2C[C@H](O)[C@H]2C)c2cnc(Nc3ccnc(N4CC[C@@H](O)[C@@](C)(F)C4)n3)cc12` [Example 103, (3S,4R)-3-fluoro-1-(4-((8-((2R,3S)-3-hydroxy-2-methylazetidin-1-yl)-5-isopropylisoquinolin-3-yl)amino)pyrimidin-2-yl)-3-methylpiperidin-4-ol], the figures for the IC50 in assay [1] and in assay [2] (setting [3]) were less than 15 nM and 10 to 20 nM, respectively.
For the compound `Cc1nnc(C2CN(c3ccc(C(C)C)c4cc(Nc5ccnc(N6CC[C@@H](O)[C@@](C)(F)C6)n5)ncc34)C2)o1` [Example 104, (3S,4R)-3-fluoro-1-(4-((5-isopropyl-8-(3-(5-methyl-1,3,4-oxadiazol-2-yl)azetidin-1-yl)isoquinolin-3-yl)amino)pyrimidin-2-yl)-3-methylpiperidin-4-ol], the IC50 in assay [1] is less than 15 nM; in assay [2] (setting [3]), less than 10 nM.
The matching figures for `CC(C)c1ccc(N2CC[C@H]2CO)c2cnc(Nc3ccnc(N4CC[C@@H](O)[C@@](C)(F)C4)n3)cc12` [Example 105, (3S,4R)-3-fluoro-1-(4-((8-((S)-2-(hydroxymethyl)azetidin-1-yl)-5-isopropylisoquinolin-3-yl)amino)pyrimidin-2-yl)-3-methylpiperidin-4-ol]: less than 15 nM and 20 to 30 nM.
